{
  "source": "patent US6693104B2",
  "about": "“Theobromine with an anti-carcinogenic activity” (Lotte Confectionery Co., Ltd., priority 2001, dated 2004)",
  "key": {"[1]": {"type": "in vivo", "settings": "0.5 g/kg, in DMSO diluted in water, observed for 7 days", "protocol": "The toxicity of theobromine of the present invention was performed as follows."}, "[2]": {"system": "SNUC2A", "test": "3H thymidine uptake assay, colon cancer cells", "type": "cell-based", "settings": "various concentrations, FIG. 5"}, "[3]": {"system": "HepG2", "test": "3H thymidine uptake assay, liver cancer cells", "type": "cell-based", "settings": "HepG2, various concentrations, 72 hr, FIG. 3", "protocol": "The inhibitory effect of theobromine on the proliferation of liver cancer cells was examined by using ^3H thymidine uptake assay (Marshall, E. S. et al. European J. Cancer, 30A: 1370-1376, 1994). HepG2 was used as liver cancer cells. The HepG2 liver cancer cells were cultured in RPMI-1640 media with 10% FBS, 100 IU/mL of penicillin and 100 μg/mL of streptomycin, in a 37° C. incubator with 5% CO2 (Forma Scientific Co., Marjetta, Ohio, USA). The media were purchased from GIBCO BRL (Grand Island, N.Y., USA). Thus cultured HepG2 liver cancer cells were transferred to 96 well plates, each of which contains 2×10^4 cells and were added with various concentrations of theobromine obtained from the reference examples 1-3 and were cultured for 72 hr. Six hours prior to recovery of the above cells, each well was added with 1 μCi of ^3H-Thymidine (Sigma, St. Louis, Mo., USA). After completion of the culture, the cells were recovered into a glass fiber filter (Brandel Inc., Gaithersburg, Mass., USA) by using a recovery instrument (Cambridge Scientific Inc., Cambridge, Mass., USA). The incorporation of ^3H-thymidine of recovered cells after combining with 3 mL of scintillation cocktail solution (Wallac, Turku, Finland) was examined in a liquid scintillation counter (Wallac, Turku, Finland). The whole process was repeated three times according to the above method."}, "[4]": {"system": "SNU1", "test": "3H thymidine uptake assay, gastric cancer cells", "type": "cell-based", "settings": "SNU1, various concentrations, FIG. 4"}, "[5]": {"system": "WB-F344 cells", "test": "Scrape Loading/Dye Transfer (SL/DT) assay: suppression of gap junction channel by H2O2", "type": "cell-based", "settings": "200 μM theobromine, 400 μM H2O2, WB-F344 rat liver epithelial cells, Lucifer Yellow, FIG. 1", "protocol": "The effect of theobromine on the suppression of gap junction channel induced by H2O2 was examined according to a known method of Scrape Loading/Dye Transfer (SL/DT) assay (Upham, B. L., Kang, K. S., Cho, H. Y., & Trosko, J. E., Carcinogenesis, 18: 37-42, 1997), as further explained below.\nWB-F344 cells were used as a liver cell in order to examine its inhibitory effect on the suppression of gap junction channel in liver cells. The above liver cells were cultured in a MEM-media with 10% FBS, added with 100 IU/mL of penicillin and 100 μg/mL of streptomycin, in an incubator at 37° C. with 5% CO2 (Forma Scientific Co., Marjetta, Ohio, USA). The media compositions used in the above culture were purchased from GIBCO BRL (Grand Island, N.Y., USA). Thus cultured liver cells in media were transferred to each 2 mL petri dish (1×10^5 cells/mL) and cultured for 44 hr. Then the above culturing media were replaced with fresh media with various concentrations of theobromine while the control group was also replaced with fresh media only. Four hours after that, the media were treated theobromine with various concentrations 400 μM by H2O2 together while the control group was replaced with fresh medial. […]"}},
  "data": [
    {"molecule": "Cn1cnc2c1c(=O)[nH]c(=O)n2C", "note": "[theobromine]", "values": [
      {"measurement": "survival", "setting": "[1]", "value": "all mice survived"},
      {"measurement": "inhibition rate of DNA synthesis of colon cancer cells", "setting": "[2]", "value": "increased in a dose-dependent manner"},
      {"measurement": "inhibition rate of DNA synthesis of liver cancer cells", "setting": "[3]", "value": "increased in a dose-dependent manner"},
      {"measurement": "inhibition rate of DNA synthesis of gastric cancer cells", "setting": "[4]", "value": "increased in a dose-dependent manner"},
      {"measurement": "inhibition of the suppression of gap junction channel by H2O2", "setting": "[5]", "value": "completely inhibit the suppression of gap junction channel"}
    ]}
  ]
}
